This note sets out measurements from ChEMBL document CHEMBL5370549, “Optimization and evaluation of pyridinyl vinyl sulfones as Nrf2 activator for the antioxidant and anti-inflammatory effects” (Eur J Med Chem, 2023).

In series [1] the target is CYP2C9 (Homo sapiens, UniProt P11712). Briefly: Inhibition of CYP2C9 (unknown origin) assessed as enzyme activity at 10 uM relative to control. Format: ADME. Details: scale not given: the % may be the effect or the level left. The conditions noted are these: read-out: Activity.
The target in series [2] is CYP3A4 (Homo sapiens, UniProt P08684). Briefly: Inhibition of CYP3A4 (unknown origin) assessed as enzyme activity at 10 uM relative to control. It is filed as ADME. Also on record: scale not given: the % may be the effect or the level left. Particulars: read-out: Activity.
The nature of series [3]: Metabolic stability of the compound in human liver microsomes assessed as parent compound remaining measured after 30 mins. It is filed as ADME, Microsome. Particulars: read-out: Stability. In general terms: Liver microsomes are vesicles of endoplasmic reticulum, rich in cytochrome P450 enzymes.
Series [4] is described as follows: Metabolic stability of the compound in mouse liver microsomes assessed as parent compound remaining measured after 30 mins. It is filed as ADME, Microsome. Particulars: read-out: Stability.
Series [5] can be described thus: Metabolic stability of the compound in rat plasma assessed as parent compound remaining measured after 30 mins. Format: ADME, cell-free. The conditions noted are these: read-out: Stability.
For series [6], the target named is CYP2C19 (Homo sapiens, UniProt P33261). Briefly: Inhibition of CYP2C19 (unknown origin) assessed as enzyme activity at 10 uM relative to control. It is filed as ADME. Also on record: scale not given: the % may be the effect or the level left. The conditions noted are these: read-out: Activity.
Series [7] is described as follows: Metabolic stability of the compound in human plasma assessed as parent compound remaining measured after 30 mins. Format: ADME, cell-free. Particulars: read-out: Stability.
For series [8], the target named is T1, Nuclear factor erythroid 2-related factor 2 (Homo sapiens, UniProt Q16236).
T1 sequence (Q16236 whole entry): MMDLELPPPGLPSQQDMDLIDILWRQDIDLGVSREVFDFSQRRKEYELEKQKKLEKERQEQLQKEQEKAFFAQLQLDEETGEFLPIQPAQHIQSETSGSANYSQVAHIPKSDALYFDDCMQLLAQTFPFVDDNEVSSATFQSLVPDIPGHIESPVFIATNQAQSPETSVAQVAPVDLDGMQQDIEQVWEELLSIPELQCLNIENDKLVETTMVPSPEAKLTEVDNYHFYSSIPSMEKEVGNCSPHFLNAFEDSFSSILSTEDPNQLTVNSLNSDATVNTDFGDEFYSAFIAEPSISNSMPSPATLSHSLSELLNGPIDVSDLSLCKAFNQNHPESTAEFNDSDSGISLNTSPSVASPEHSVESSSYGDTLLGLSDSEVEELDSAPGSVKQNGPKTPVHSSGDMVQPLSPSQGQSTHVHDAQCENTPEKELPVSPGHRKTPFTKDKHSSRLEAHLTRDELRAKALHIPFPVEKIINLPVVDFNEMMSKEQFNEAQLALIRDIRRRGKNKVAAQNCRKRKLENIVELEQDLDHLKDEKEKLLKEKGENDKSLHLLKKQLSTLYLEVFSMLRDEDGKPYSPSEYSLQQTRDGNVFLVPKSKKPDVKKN
Briefly: Activation of Nrf2 in human U2OS cells co-expressing Keap1 assessed as induction of Nrf2 nuclear translocation incubated for 6 hrs by PathHunter chemiluminescence based analysis. Format: cell-based.

Series [9] addresses T2, CYP1A2 (Homo sapiens, UniProt P05177).
T2 sequence (P05177 whole entry): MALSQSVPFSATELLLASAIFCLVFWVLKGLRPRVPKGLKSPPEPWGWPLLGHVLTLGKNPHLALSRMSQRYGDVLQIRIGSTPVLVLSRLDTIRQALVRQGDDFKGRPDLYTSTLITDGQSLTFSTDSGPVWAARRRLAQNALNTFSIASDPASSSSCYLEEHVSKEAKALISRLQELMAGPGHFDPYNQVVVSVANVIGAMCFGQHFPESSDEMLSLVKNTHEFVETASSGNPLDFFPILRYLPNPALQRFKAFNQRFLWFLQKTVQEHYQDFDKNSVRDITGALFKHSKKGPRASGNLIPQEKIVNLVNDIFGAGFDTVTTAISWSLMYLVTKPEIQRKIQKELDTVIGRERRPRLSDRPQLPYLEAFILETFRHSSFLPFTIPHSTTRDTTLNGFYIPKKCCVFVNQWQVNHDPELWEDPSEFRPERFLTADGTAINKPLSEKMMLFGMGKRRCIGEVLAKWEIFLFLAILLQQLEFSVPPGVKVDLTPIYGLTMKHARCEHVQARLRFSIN
The series is described as follows: Inhibition of CYP1A2 (unknown origin) assessed as enzyme activity at 10 uM relative to control. It is filed as ADME. Details: scale not given: the % may be the effect or the level left. Particulars: read-out: Activity.

Series [10] has as its target CYP2D6 (Homo sapiens, UniProt P10635). Briefly: Inhibition of CYP2D6 (unknown origin) assessed as enzyme activity at 10 uM relative to control. Format: ADME. The conditions noted are these: read-out: Activity. Also on record: scale not given: the % may be the effect or the level left.

Where only a bound is given, the exact number is not on record here.

Sequence of CYP2C9 (P11712 whole entry): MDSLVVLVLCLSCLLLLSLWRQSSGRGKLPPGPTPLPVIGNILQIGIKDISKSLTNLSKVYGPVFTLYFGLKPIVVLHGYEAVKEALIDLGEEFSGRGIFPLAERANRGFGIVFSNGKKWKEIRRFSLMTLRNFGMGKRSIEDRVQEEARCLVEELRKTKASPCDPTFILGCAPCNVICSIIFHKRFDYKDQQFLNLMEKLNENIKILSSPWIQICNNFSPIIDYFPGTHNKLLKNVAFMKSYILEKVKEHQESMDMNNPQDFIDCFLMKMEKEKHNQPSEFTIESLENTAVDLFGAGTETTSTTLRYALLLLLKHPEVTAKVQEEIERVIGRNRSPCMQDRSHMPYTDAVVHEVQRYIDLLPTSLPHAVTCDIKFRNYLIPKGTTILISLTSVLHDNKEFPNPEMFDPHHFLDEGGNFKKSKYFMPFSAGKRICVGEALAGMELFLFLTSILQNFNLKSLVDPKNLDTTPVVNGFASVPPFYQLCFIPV
Sequence of CYP2C19 (P33261 whole entry): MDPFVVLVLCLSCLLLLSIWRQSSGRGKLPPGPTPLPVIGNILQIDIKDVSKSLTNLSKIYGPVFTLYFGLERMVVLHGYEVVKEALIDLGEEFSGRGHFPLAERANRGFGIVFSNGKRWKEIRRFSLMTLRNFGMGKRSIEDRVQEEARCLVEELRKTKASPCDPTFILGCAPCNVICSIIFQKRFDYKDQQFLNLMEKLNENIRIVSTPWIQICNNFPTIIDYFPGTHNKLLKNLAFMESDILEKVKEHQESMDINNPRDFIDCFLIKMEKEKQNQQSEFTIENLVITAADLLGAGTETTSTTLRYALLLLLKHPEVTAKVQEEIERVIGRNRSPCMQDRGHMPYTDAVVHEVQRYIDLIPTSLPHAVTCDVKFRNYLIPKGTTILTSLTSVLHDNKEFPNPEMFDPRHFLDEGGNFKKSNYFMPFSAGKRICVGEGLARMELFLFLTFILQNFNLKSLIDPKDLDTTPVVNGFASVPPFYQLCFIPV
Sequence of CYP3A4 (P08684 whole entry): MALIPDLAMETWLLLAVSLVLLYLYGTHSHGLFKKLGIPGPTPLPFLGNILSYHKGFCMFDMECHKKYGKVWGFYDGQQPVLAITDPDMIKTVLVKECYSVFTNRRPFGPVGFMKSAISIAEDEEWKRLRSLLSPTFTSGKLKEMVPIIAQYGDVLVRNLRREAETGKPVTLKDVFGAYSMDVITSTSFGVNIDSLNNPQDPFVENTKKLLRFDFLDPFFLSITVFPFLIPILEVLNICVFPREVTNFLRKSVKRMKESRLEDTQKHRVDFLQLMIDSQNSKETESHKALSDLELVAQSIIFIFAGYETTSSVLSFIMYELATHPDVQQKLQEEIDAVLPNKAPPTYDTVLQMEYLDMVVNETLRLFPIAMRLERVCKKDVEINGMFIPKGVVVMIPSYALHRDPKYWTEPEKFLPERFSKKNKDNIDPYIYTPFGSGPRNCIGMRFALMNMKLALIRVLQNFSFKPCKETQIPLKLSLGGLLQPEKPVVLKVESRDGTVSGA
Sequence of CYP2D6 (P10635 whole entry): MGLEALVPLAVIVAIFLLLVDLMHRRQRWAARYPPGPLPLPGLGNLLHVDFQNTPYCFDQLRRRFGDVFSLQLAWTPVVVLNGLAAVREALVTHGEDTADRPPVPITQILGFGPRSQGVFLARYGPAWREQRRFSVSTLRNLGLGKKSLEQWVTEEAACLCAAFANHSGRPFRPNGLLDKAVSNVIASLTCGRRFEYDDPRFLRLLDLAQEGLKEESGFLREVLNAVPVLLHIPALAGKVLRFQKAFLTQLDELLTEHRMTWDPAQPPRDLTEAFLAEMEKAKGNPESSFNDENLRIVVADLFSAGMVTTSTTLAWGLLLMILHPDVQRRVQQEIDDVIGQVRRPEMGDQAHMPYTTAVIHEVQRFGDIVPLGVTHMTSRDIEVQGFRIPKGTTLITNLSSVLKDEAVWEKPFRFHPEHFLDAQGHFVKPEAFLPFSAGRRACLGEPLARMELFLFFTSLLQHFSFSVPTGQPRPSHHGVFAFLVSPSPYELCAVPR

Consider `COc1cccnc1S(=O)(=O)/C=C/c1ccccc1Cl`, for which the activity at 10 µM was found to be 59.7% in series [1]; 87.1% in [2]; 60.7% in series [6]; 71.8% in [9]; 93.4% in series [10]. The remaining at 0.5 h in series [3] is 83.1%; in series [4], 34.4%; in series [5], more than 99%; in [7] it was 92.4%. In series [8], the EC50 (as a rule, the midpoint of the concentration-response curve) was 76 nM.
With `COc1ccc(S(=O)(=O)/C=C/c2ncccc2Cl)nc1`, the activity at 10 µM in series [1] is more than 99%; in series [2], 72.6%; in [6] it was 29%; in series [9], 74.2%; in series [10], more than 99%. For the same compound, the remaining at 0.5 h in series [3] stood at 48.1%; in series [4], 44%; in [5], 91.5%; in series [7] it was 96.7%. The EC50 in series [8] is 33 nM.
Consider `COc1ccnc(S(=O)(=O)/C=C/c2cccc(Cl)c2)c1`, for which the activity at 10 µM is more than 99% in series [1]; 38.2% in series [2]; 7% in series [6]; 63.4% in series [9]; 97.2% in series [10]. Also, the remaining at 0.5 h is 54.6% in series [3], 8.7% in series [4], 94.7% in series [5] and more than 99% in series [7]. In [8], the EC50 came to 824 nM.
With `COc1ccnc(S(=O)(=O)/C=C/c2ccccc2Cl)c1`, the activity at 10 µM came out at 73.6% in series [1]; 49.8% in [2]; 11.1% in [6]; 28.5% in [9]; 97.5% in series [10]. Further, the remaining at 0.5 h is 22.8% in [3], 2.2% in series [4], 96.5% in series [5] and more than 99% in series [7]. Further, in series [8], the EC50 was determined as 58 nM.
With `COc1cccnc1S(=O)(=O)/C=C/c1ccccc1C(F)(F)F`, the activity at 10 µM in series [1] is 79.2%; in series [2], 76%; in series [6], 59.1%; in series [9], 71.2%; in series [10], 99.1%. The remaining at 0.5 h in [3] is 52.9%; in series [4], 17.8%; in series [5] it was 93.5%; in [7], 96.8%. For the same compound, the EC50 in [8] worked out at 146 nM.
On to `COc1ccnc(S(=O)(=O)/C=C/c2ccc(Cl)cn2)c1`, for which the activity at 10 µM in series [1] was more than 99%; in series [2] it was 95.1%; in [6] it was 10.7%; in series [9] it was 33.3%; in series [10], 96.3%. The remaining at 0.5 h in series [3] came to 70.3%; in [4], 67.6%; in [5], 84.8%; in series [7], 91.1%. The 50% effective concentration (EC50) in [8] was 1310 nM.
Regarding `COc1ccc(S(=O)(=O)/C=C/c2ccccc2Cl)nc1`, the activity at 10 µM is more than 99% in series [1]; 58.8% in series [2]; 5.4% in series [6]; 46.1% in [9]; 100% in series [10]. Further, the remaining at 0.5 h was 9.5% in [3], 5.6% in series [4], more than 99% in [5] and more than 99% in [7]. Besides, in series [8], the half-maximal effective concentration (EC50) was 130 nM.
Regarding `COc1ncccc1S(=O)(=O)/C=C/c1ncccc1Cl`, the activity at 10 µM was more than 99% in series [1]; 53% in series [2]; 15% in [6]; 31% in [9]; more than 99% in [10]. Besides, the remaining at 0.5 h in series [3] was 77.6%; in series [4], 59.2%; in series [5], 91.3%; in [7], 98.5%. Moreover, the EC50 in series [8] came out at 75 nM.
With `COc1ncccc1S(=O)(=O)/C=C/c1ccccc1Cl`, the activity at 10 µM was more than 99% in series [1]; 48.5% in series [2]; 7.1% in series [6]; 10.7% in series [9]; 99.5% in series [10]. Further, the remaining at 0.5 h in series [3] was 75.2%; in series [4], 48.1%; in [5], 98.9%; in series [7], more than 99%. In series [8], the EC50 stood at 189 nM.
For the compound `COc1cccnc1S(=O)(=O)/C=C/c1ccccc1F`, the activity at 10 µM in [1] was determined as 79.7%; in series [2], 89.8%; in series [6], 68.4%; in series [9], 79.4%; in series [10] it was 98.8%. The remaining at 0.5 h came to 89.4% in series [3], 63.6% in series [4], 93% in [5] and 95.9% in series [7]. Moreover, in series [8], the concentration giving a half-maximal response (EC50) stood at 801 nM.
Regarding `COc1cccc(S(=O)(=O)/C=C/c2ncccc2Cl)n1`, the activity at 10 µM in series [1] was more than 99%; in [2], 36.8%; in [6], 12.5%; in series [9] it was 23.1%; in [10] it was 96%. Also, the remaining at 0.5 h in series [3] was 49.4%; in series [4], 9.6%; in series [5], 83%; in series [7], more than 99%. Besides, the concentration giving a half-maximal response (EC50) in [8] was determined as 93 nM.
Regarding `COc1ccnc(S(=O)(=O)/C=C/c2ccc(Cl)cc2)c1`, the activity at 10 µM in [1] is more than 99%; in [2] it was 85.8%; in series [6], 10.5%; in series [9], 49%; in series [10], 98.5%. Also, the remaining at 0.5 h in [3] was 37.8%; in [4], 18.8%; in series [5], more than 99%; in series [7], more than 99%. For the same compound, the EC50 in [8] was 1220 nM.
As for `COc1ccnc(S(=O)(=O)/C=C/c2cccnc2Cl)c1`, the activity at 10 µM in series [1] was more than 99%; in [2], 91.5%; in series [6], 30.2%; in series [9], 81%; in [10] it was 99.8%. Further, the remaining at 0.5 h in series [3] turned out to be 76.6%; in series [4] it was 61.4%; in [5], 91.9%; in series [7], 99%. The EC50 in [8] amounted to 49 nM.
For the compound `COc1cccc(S(=O)(=O)/C=C/c2ccccc2C(F)(F)F)n1`, the activity at 10 µM in series [1] was 71%; in series [2] it was 30.6%; in series [6] it was 13.2%; in series [9], 4.9%; in [10], 91.7%. Besides, the remaining at 0.5 h worked out at 19.3% in series [3], 6% in series [4], 91.8% in series [5] and 98.4% in [7]. The half-maximal effective concentration (EC50) in [8] amounted to 316 nM.
Consider `COc1ccnc(S(=O)(=O)/C=C/c2ccncc2Cl)c1`, for which the activity at 10 µM in [1] is more than 99%; in [2], 70.2%; in series [6] it was 22.4%; in [9] it was 29.9%; in [10], 69.8%. Besides, the remaining at 0.5 h in [3] stood at 77.3%; in series [4], 50.4%; in series [5], 43.4%; in series [7] it was 83.6%. For the same compound, the 50% effective concentration (EC50) in series [8] was 32 nM.
Take `COc1ccnc(S(=O)(=O)/C=C/c2ccc(Cl)nc2)c1`: the activity at 10 µM is 91.7% in series [1]; more than 99% in [2]; 17.9% in [6]; 83% in series [9]; more than 99% in [10]. The remaining at 0.5 h in series [3] came to 65.8%; in [4], 82.1%; in series [5], 97.3%; in [7], 98.6%. In series [8], the EC50 stood at 914 nM.
